Results: PMC11270923 (BMC Chemistry, 2024)

Test: Shake-flask solubility of acetaminophen in aqueous protic ionic liquid solutions (UV-vis at 243 nm)
Assay type: physicochemical
Description: The experimental solubility results were determined using a variety of techniques, including the shake-flask method. Aqueous binary mixtures based on PILs have been made utilizing an analytical balance with a 10^–4 g precision for determining the solubility results. Glass vials with a specific amount of water + PILs were filled with the extra acetaminophen. Following that, the samples were combined for 3 h and left for three days in a water bath thermostat (ED, Julabo Co., Germany) with temperature control and an uncertainty of 0.01 K. To separate the liquid and solid phases, a Hettich D-7200 centrifuge was employed (with 4000 RPM at room temperature at 10 min). An ethanol + water solution was applied to dilute the liquid phase after the saturated solutions were filtered through a […] PTFE filter. Subsequently, the drug concentration in the solutions was ascertained using a calibration curve and a UV–vis spectrometer at 243 nm.

For `CC(=O)Nc1ccc(O)cc1` [ACP, Acetaminophen], the “solubility 10^5x1^exp” value (water+[DEA]La w3=0.0000 298.15 K 866 hPa) was 1.839 mole fraction x10^5, the “solubility 10^5x1^exp” value (water+[DEA]La w3=0.0000 303.15 K 866 hPa) was 2.239 mole fraction x10^5 and the “solubility 10^5x1^exp” value (water+[DEA]La w3=0.0000 308.15 K 866 hPa) was 2.545 mole fraction x10^5. For the same molecule, the “solubility 10^5x1^exp” value (water+[DEA]La w3=0.0000 313.15 K 866 hPa) was 3.009 mole fraction x10^5, the “solubility 10^5x1^exp” value (water+[DEA]La w3=0.0200 298.15 K 866 hPa) was 2.492 mole fraction x10^5 and the “solubility 10^5x1^exp” value (water+[DEA]La w3=0.0200 303.15 K 866 hPa) was 3.159 mole fraction x10^5. For the same molecule, the “solubility 10^5x1^exp” value (water+[DEA]La w3=0.0200 308.15 K 866 hPa) was 3.555 mole fraction x10^5, the “solubility 10^5x1^exp” value (water+[DEA]La w3=0.0200 313.15 K 866 hPa) was 3.722 mole fraction x10^5 and the “solubility 10^5x1^exp” value (water+[DEA]La w3=0.0500 298.15 K 866 hPa) was 3.181 mole fraction x10^5. For the same molecule, the “solubility 10^5x1^exp” value (water+[DEA]La w3=0.0500 303.15 K 866 hPa) was 3.576 mole fraction x10^5, the “solubility 10^5x1^exp” value (water+[DEA]La w3=0.0500 308.15 K 866 hPa) was 3.917 mole fraction x10^5 and the “solubility 10^5x1^exp” value (water+[DEA]La w3=0.0500 313.15 K 866 hPa) was 4.227 mole fraction x10^5. The “solubility 10^5x1^exp” value (water+[DEA]La w3=0.0700 298.15 K 866 hPa) was 3.452 mole fraction x10^5, the “solubility 10^5x1^exp” value (water+[DEA]La w3=0.0700 303.15 K 866 hPa) was 3.977 mole fraction x10^5 and the “solubility 10^5x1^exp” value (water+[DEA]La w3=0.0700 308.15 K 866 hPa) was 4.167 mole fraction x10^5. The “solubility 10^5x1^exp” value (water+[DEA]La w3=0.0700 313.15 K 866 hPa) was 4.514 mole fraction x10^5, the “solubility 10^5x1^exp” value (water+[DEA]La w3=0.1000 298.15 K 866 hPa) was 3.849 mole fraction x10^5 and the “solubility 10^5x1^exp” value (water+[DEA]La w3=0.1000 303.15 K 866 hPa) was 4.220 mole fraction x10^5. For the same molecule, the “solubility 10^5x1^exp” value (water+[DEA]La w3=0.1000 308.15 K 866 hPa) was 4.793 mole fraction x10^5, the “solubility 10^5x1^exp” value (water+[DEA]La w3=0.1000 313.15 K 866 hPa) was 5.266 mole fraction x10^5 and the “solubility 10^5x1^exp” value (water+[DEA]La w3=0.1500 298.15 K 866 hPa) was 4.290 mole fraction x10^5. For the same molecule, the “solubility 10^5x1^exp” value (water+[DEA]La w3=0.1500 303.15 K 866 hPa) was 4.611 mole fraction x10^5, the “solubility 10^5x1^exp” value (water+[DEA]La w3=0.1500 308.15 K 866 hPa) was 5.038 mole fraction x10^5 and the “solubility 10^5x1^exp” value (water+[DEA]La w3=0.1500 313.15 K 866 hPa) was 5.633 mole fraction x10^5. For the same molecule, the “solubility 10^5x1^exp” value (water+[DEA]La w3=0.2000 298.15 K 866 hPa) was 4.669 mole fraction x10^5, the “solubility 10^5x1^exp” value (water+[DEA]La w3=0.2000 303.15 K 866 hPa) was 5.223 mole fraction x10^5 and the “solubility 10^5x1^exp” value (water+[DEA]La w3=0.2000 308.15 K 866 hPa) was 5.710 mole fraction x10^5. For the same molecule, the “solubility 10^5x1^exp” value (water+[DEA]La w3=0.2000 313.15 K 866 hPa) was 6.188 mole fraction x10^5, the “solubility 10^5x1^exp” value (water+[MEA]La w3=0.0000 298.15 K 866 hPa) was 1.839 mole fraction x10^5 and the “solubility 10^5x1^exp” value (water+[MEA]La w3=0.0000 303.15 K 866 hPa) was 2.239 mole fraction x10^5. For the same molecule, the “solubility 10^5x1^exp” value (water+[MEA]La w3=0.0000 308.15 K 866 hPa) was 2.545 mole fraction x10^5, the “solubility 10^5x1^exp” value (water+[MEA]La w3=0.0000 313.15 K 866 hPa) was 3.009 mole fraction x10^5 and the “solubility 10^5x1^exp” value (water+[MEA]La w3=0.0200 298.15 K 866 hPa) was 2.750 mole fraction x10^5. For the same molecule, the “solubility 10^5x1^exp” value (water+[MEA]La w3=0.0200 303.15 K 866 hPa) was 3.417 mole fraction x10^5, the “solubility 10^5x1^exp” value (water+[MEA]La w3=0.0200 308.15 K 866 hPa) was 3.802 mole fraction x10^5 and the “solubility 10^5x1^exp” value (water+[MEA]La w3=0.0200 313.15 K 866 hPa) was 4.007 mole fraction x10^5. For the same molecule, the “solubility 10^5x1^exp” value (water+[MEA]La w3=0.0500 298.15 K 866 hPa) was 3.256 mole fraction x10^5, the “solubility 10^5x1^exp” value (water+[MEA]La w3=0.0500 303.15 K 866 hPa) was 3.861 mole fraction x10^5 and the “solubility 10^5x1^exp” value (water+[MEA]La w3=0.0500 308.15 K 866 hPa) was 4.055 mole fraction x10^5. The “solubility 10^5x1^exp” value (water+[MEA]La w3=0.0500 313.15 K 866 hPa) was 4.320 mole fraction x10^5, the “solubility 10^5x1^exp” value (water+[MEA]La w3=0.0700 298.15 K 866 hPa) was 3.884 mole fraction x10^5 and the “solubility 10^5x1^exp” value (water+[MEA]La w3=0.0700 303.15 K 866 hPa) was 4.588 mole fraction x10^5. For the same molecule, the “solubility 10^5x1^exp” value (water+[MEA]La w3=0.0700 308.15 K 866 hPa) was 4.675 mole fraction x10^5, the “solubility 10^5x1^exp” value (water+[MEA]La w3=0.0700 313.15 K 866 hPa) was 5.025 mole fraction x10^5 and the “solubility 10^5x1^exp” value (water+[MEA]La w3=0.1000 298.15 K 866 hPa) was 4.380 mole fraction x10^5. For the same molecule, the “solubility 10^5x1^exp” value (water+[MEA]La w3=0.1000 303.15 K 866 hPa) was 4.807 mole fraction x10^5, the “solubility 10^5x1^exp” value (water+[MEA]La w3=0.1000 308.15 K 866 hPa) was 5.407 mole fraction x10^5 and the “solubility 10^5x1^exp” value (water+[MEA]La w3=0.1000 313.15 K 866 hPa) was 5.600 mole fraction x10^5. For the same molecule, the “solubility 10^5x1^exp” value (water+[MEA]La w3=0.1500 298.15 K 866 hPa) was 4.962 mole fraction x10^5, the “solubility 10^5x1^exp” value (water+[MEA]La w3=0.1500 303.15 K 866 hPa) was 5.658 mole fraction x10^5 and the “solubility 10^5x1^exp” value (water+[MEA]La w3=0.1500 308.15 K 866 hPa) was 6.128 mole fraction x10^5. The “solubility 10^5x1^exp” value (water+[MEA]La w3=0.1500 313.15 K 866 hPa) was 6.665 mole fraction x10^5, the “solubility 10^5x1^exp” value (water+[MEA]La w3=0.2000 298.15 K 866 hPa) was 5.589 mole fraction x10^5 and the “solubility 10^5x1^exp” value (water+[MEA]La w3=0.2000 303.15 K 866 hPa) was 6.123 mole fraction x10^5. For the same molecule, the “solubility 10^5x1^exp” value (water+[MEA]La w3=0.2000 308.15 K 866 hPa) was 6.695 mole fraction x10^5, the “solubility 10^5x1^exp” value (water+[MEA]La w3=0.2000 313.15 K 866 hPa) was 7.337 mole fraction x10^5 and the “solubility 10^5x1^exp” value (water+[TEA]La w3=0.0000 298.15 K 866 hPa) was 1.839 mole fraction x10^5. For the same molecule, the “solubility 10^5x1^exp” value (water+[TEA]La w3=0.0000 303.15 K 866 hPa) was 2.239 mole fraction x10^5, the “solubility 10^5x1^exp” value (water+[TEA]La w3=0.0000 308.15 K 866 hPa) was 2.545 mole fraction x10^5 and the “solubility 10^5x1^exp” value (water+[TEA]La w3=0.0000 313.15 K 866 hPa) was 3.009 mole fraction x10^5. The “solubility 10^5x1^exp” value (water+[TEA]La w3=0.0200 298.15 K 866 hPa) was 2.161 mole fraction x10^5, the “solubility 10^5x1^exp” value (water+[TEA]La w3=0.0200 303.15 K 866 hPa) was 2.632 mole fraction x10^5 and the “solubility 10^5x1^exp” value (water+[TEA]La w3=0.0200 308.15 K 866 hPa) was 2.940 mole fraction x10^5. The “solubility 10^5x1^exp” value (water+[TEA]La w3=0.0200 313.15 K 866 hPa) was 3.334 mole fraction x10^5, the “solubility 10^5x1^exp” value (water+[TEA]La w3=0.0500 298.15 K 866 hPa) was 2.597 mole fraction x10^5 and the “solubility 10^5x1^exp” value (water+[TEA]La w3=0.0500 303.15 K 866 hPa) was 2.944 mole fraction x10^5. The “solubility 10^5x1^exp” value (water+[TEA]La w3=0.0500 308.15 K 866 hPa) was 3.210 mole fraction x10^5, the “solubility 10^5x1^exp” value (water+[TEA]La w3=0.0500 313.15 K 866 hPa) was 3.521 mole fraction x10^5 and the “solubility 10^5x1^exp” value (water+[TEA]La w3=0.0700 298.15 K 866 hPa) was 2.908 mole fraction x10^5. For the same molecule, the “solubility 10^5x1^exp” value (water+[TEA]La w3=0.0700 303.15 K 866 hPa) was 3.461 mole fraction x10^5, the “solubility 10^5x1^exp” value (water+[TEA]La w3=0.0700 308.15 K 866 hPa) was 3.584 mole fraction x10^5 and the “solubility 10^5x1^exp” value (water+[TEA]La w3=0.0700 313.15 K 866 hPa) was 3.929 mole fraction x10^5. The “solubility 10^5x1^exp” value (water+[TEA]La w3=0.1000 298.15 K 866 hPa) was 3.094 mole fraction x10^5, the “solubility 10^5x1^exp” value (water+[TEA]La w3=0.1000 303.15 K 866 hPa) was 3.834 mole fraction x10^5 and the “solubility 10^5x1^exp” value (water+[TEA]La w3=0.1000 308.15 K 866 hPa) was 4.208 mole fraction x10^5. For the same molecule, the “solubility 10^5x1^exp” value (water+[TEA]La w3=0.1000 313.15 K 866 hPa) was 4.349 mole fraction x10^5, the “solubility 10^5x1^exp” value (water+[TEA]La w3=0.1500 298.15 K 866 hPa) was 3.958 mole fraction x10^5 and the “solubility 10^5x1^exp” value (water+[TEA]La w3=0.1500 303.15 K 866 hPa) was 4.151 mole fraction x10^5. For the same molecule, the “solubility 10^5x1^exp” value (water+[TEA]La w3=0.1500 308.15 K 866 hPa) was 4.940 mole fraction x10^5, the “solubility 10^5x1^exp” value (water+[TEA]La w3=0.1500 313.15 K 866 hPa) was 5.167 mole fraction x10^5 and the “solubility 10^5x1^exp” value (water+[TEA]La w3=0.2000 298.15 K 866 hPa) was 4.309 mole fraction x10^5. The “solubility 10^5x1^exp” value (water+[TEA]La w3=0.2000 303.15 K 866 hPa) was 4.778 mole fraction x10^5, the “solubility 10^5x1^exp” value (water+[TEA]La w3=0.2000 308.15 K 866 hPa) was 5.362 mole fraction x10^5 and the “solubility 10^5x1^exp” value (water+[TEA]La w3=0.2000 313.15 K 866 hPa) was 5.751 mole fraction x10^5.
